Structures can show the parent of a compound that is named as a salt.
Target: T1, human mGlu7 (Homo sapiens, UniProt Q14831)
T1 construct: expressed in transfected cells
Experiment: mGlu7 assay on HEK-expressing human mGlu7: fluorescent cell-based Ca2+ mobilization (FLIPR384), inhibition of EC80 L-AP4 response
Settings: HEK-293 cells expressing hmGlu7, EC80 L-AP4 stimulation; mean of at least three independent experiments in duplicate; read-out: Ca^2+ Flux (mean IC50)
Source text: mGlu7 Assay on HEK-Expressing Human mGlu7
The cDNA encoding the human metabotropic glutamate 7 receptor (hmGlu7), (accession number NM_181874.2, NCBI Nucleotide database browser), was subcloned into an expression vector containing also the hygromycin resistance gene. In parallel, the cDNA encoding a G protein allowing redirection of the activation signal to intracellular calcium flux was subcloned into a different expression vector containing also the Puromycin resistance gene. Transfection of both these vectors into HEK293 cells with PolyFect reagent (Qiagen) according to supplier's protocol, and hygromycin and puromycin treatment allowed selection of antibiotic resistant cells which had integrated stably one or more copies of the plasmids. Positive cellular clones expressing hmGlu7 were identified in a functional assay measuring changes in calcium fluxes in response to glutamate and L-AP4 or known mGlu7 orthosteric antagonists.
HEK-293 cells expressing hmGlu7 were maintained in media containing DMEM, Fetal Bovine Serum (10%), Glutamax™ (2 mM), penicillin (100 units/mL), streptomycin (100 μg/mL), geneticin (100 μg/mL) and hygromycin-B (40 μg/mL) and puromycin (1 μg/mL) at 37° C. with 5% CO2 in a humidified atmosphere.
Fluorescent Cell Based- Ca^+ Mobilization Assay Human mGlu7 HEK-293 cells were plated out 24 hours prior to a fluorescent cell-based calcium mobilization assay using FLIPR^384 assay (Molecular Device, Sunnyvale, CA, USA) in black-walled, clear-bottomed, poly-L-ornithine-coated 384-well plates at a density of 25,000 cells/well in a glutamine/glutamate free DMEM medium containing fetal bovine serum (10%), penicillin (100 units/mL), streptomycin (100 μg/mL) and doxycyline (1 μg/ml) at 37° C. with 5% CO2 in a humidified atmosphere.
On the day of the assay, the medium was aspirated and the cells were loaded with a 3 μM solution of Fluo4-AM (LuBioScience, Lucerne, Switzerland) in 0.03% pluronic acid. After 1 hour at 37° C./5% CO2, the non incorporated dye was removed by washing cell plate with the assay buffer. All assays were performed in a pH 7.4 buffered-solution containing 20 mM HEPES, 143 mM NaCl, 6 mM KCl, 1 mM MgSO4, 1 mM CaCl2, 0.125 mM sulfinpyrazone and 0.1% glucose.
After 10 s of basal fluorescence recording, various concentrations of the compounds of the invention were added to the cells. Changes in fluorescence levels were first monitored for 180 s in order to detect any agonist activity of the compounds. Then the cells were stimulated by an EC80 L-AP4 concentration for an additional 110 s in order to measure inhibiting activities of the compounds of the invention. EC80 L-AP4 concentration is the concentration giving 80% of the maximal glutamate response.
The concentration-response curves of L-AP4 or representative compounds of the present invention were generated using the Prism GraphPad software (Graph Pad Inc, San Diego, USA). The curves were fitted to a four-parameter logistic equation: […]
allowing determination of IC50 values.
The Table 3 below represents the mean IC50 obtained from at least three independent experiments of selected molecules performed in duplicate.

T1 sequence (Q14831 35-922 isoform Q14831-2 limits assumed): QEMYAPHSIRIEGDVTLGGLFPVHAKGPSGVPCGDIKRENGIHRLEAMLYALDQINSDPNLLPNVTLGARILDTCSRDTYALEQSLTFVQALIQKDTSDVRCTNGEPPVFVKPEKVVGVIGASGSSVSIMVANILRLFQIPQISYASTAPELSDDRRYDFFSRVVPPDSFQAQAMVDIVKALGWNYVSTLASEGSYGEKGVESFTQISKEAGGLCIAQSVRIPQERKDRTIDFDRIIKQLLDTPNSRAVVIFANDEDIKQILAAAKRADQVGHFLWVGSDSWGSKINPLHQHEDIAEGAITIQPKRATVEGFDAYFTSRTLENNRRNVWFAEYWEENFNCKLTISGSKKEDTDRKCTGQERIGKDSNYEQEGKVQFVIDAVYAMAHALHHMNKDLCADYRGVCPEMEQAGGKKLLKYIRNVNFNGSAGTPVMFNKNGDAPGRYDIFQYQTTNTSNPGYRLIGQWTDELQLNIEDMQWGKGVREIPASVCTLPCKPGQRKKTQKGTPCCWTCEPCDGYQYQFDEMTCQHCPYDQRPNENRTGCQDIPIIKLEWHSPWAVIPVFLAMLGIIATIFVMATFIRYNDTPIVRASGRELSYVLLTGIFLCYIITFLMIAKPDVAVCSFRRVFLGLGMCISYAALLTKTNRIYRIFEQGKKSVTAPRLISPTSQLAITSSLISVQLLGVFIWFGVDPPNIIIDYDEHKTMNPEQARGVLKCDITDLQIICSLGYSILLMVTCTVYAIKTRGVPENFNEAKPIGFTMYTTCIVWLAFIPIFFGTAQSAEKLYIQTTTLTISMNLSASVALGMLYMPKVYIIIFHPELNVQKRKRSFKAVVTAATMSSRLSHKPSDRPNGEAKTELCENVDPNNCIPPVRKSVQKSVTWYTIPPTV

| Compound | IC50 [nM] |
| --- | --- |
| COc1cccc(-c2ccc3c(=O)n(-c4ncc(N5CCCC5)cn4)ncc3c2)c1C [1-70] | 100 to 1000 |
| COc1cccc(-c2ccc3c(=O)n(-c4ncc(N5CC6(COC6)C5)cn4)ncc3c2)c1C [1-84, 2-(5-(2-Oxa-6-azaspiro[3.3]heptan-6-yl)pyrimidin-2-yl)-6-(3-methoxy-2-methylphenyl)phthalazin-1(2H)-one] | 100 to 1000 |
| COc1cccc(-c2ccc3c(=O)n(-c4ccc(SC)cn4)ncc3c2)c1C [1-67] | 100 to 1000 |
| O=c1c2ccc(-c3cc(N4CCC4)ccn3)cc2cnn1-c1ccccn1 [1-53, 6-(4-(Azetidin-1-yl)pyridin-2-yl)-2-(pyridin-2-yl)phthalazin-1(2H)-one] | 1000 to 10000 |
| CNCCNc1cnc(-n2ncc3cc(-c4cccc(OC)c4C)ccc3c2=O)nc1 [1-105] | 100 to 1000 |
| CCn1ncc2cc(-c3cccc(N(C)C)c3)ccc2c1=O [1-6] | 100 to 1000 |
| Cc1c(OC2CC2)cccc1-c1ccc2c(=O)n(-c3ncccn3)ncc2c1 [1-43] | 100 to 1000 |
| COc1nccc(-c2ccc3c(=O)n(-c4ncccn4)ncc3c2)c1F [1-112] | 1000 to 10000 |
| COc1cccc(-c2ccc3c(=O)n(-c4ncc(NCCN5CCCC5)cn4)ncc3c2)c1C [1-95] | 100 to 1000 |
| Cc1ccc(-c2ccc3c(=O)n(-c4ccccc4Cl)ncc3c2)c(C)c1 [1-5, 2-(2-Chlorophenyl)-6-(2,4-dimethylphenyl)phthalazin-1(2H)-one] | 100 to 1000 |
| CC(F)(F)c1cccc(-c2ccc3c(=O)n(-c4ccccn4)ncc3c2)c1 [1-39] | 100 to 1000 |
| COc1cccc(-c2ccc3c(=O)n(-c4ncc(N5CCSCC5)cn4)ncc3c2)c1C [1-78] | 100 to 1000 |
| Cc1ccc(-c2ccc3c(=O)n(-c4ccccc4F)ncc3c2)c(C)c1 [1-4, 6-(2,4-Dimethylphenyl)-2-(2-fluorophenyl)phthalazin-1(2H)-one] | 100 to 1000 |
| COc1cccc(-c2ccc3c(=O)n(C4CCOCC4)ncc3c2)c1C [1-60] | 100 to 1000 |
| O=c1c2ccc(-c3cccc4c3ccn4C3CC3)cc2cnn1-c1ncccn1 [1-48] | 100 to 1000 |
| CCn1ncc2cc(-c3c(C)cc(C)cc3C)ccc2c1=O [1-2] | 100 to 1000 |
| O=c1c2ccc(-c3cc(F)cc(N4CCC4)c3)cc2cnn1-c1ccccn1 [1-49] | 100 to 1000 |
| O=c1c2ccc(-c3cccc4c3ccn4C3CC3)cc2cnn1-c1ccccn1 [1-47] | 1000 to 10000 |

| Compound | IC50 [nM] |
| --- | --- |
| COc1cccc(-c2ccc3c(=O)n(-c4cc(C)ccn4)ncc3c2)c1 [1-30] | 100 to 1000 |
| CCOc1cccc(-c2ccc3c(=O)n(CC)ncc3c2)c1 [1-7] | 100 to 1000 |
| CCn1ncc2cc(-c3cccc(OC)c3)ccc2c1=O [1-3] | 100 to 1000 |
| COc1cccc(-c2ccc3c(=O)n(-c4cccc(C)n4)ncc3c2)c1 [1-32] | 100 to 1000 |
| COc1cccc(-c2ccc3c(=O)n(-c4ncc(N5CCOCC5)cn4)ncc3c2)c1C [1-64] | < 100 |
| O=c1c2ccc(-c3cccc(OC4CC4)c3Cl)cc2cnn1-c1ccccn1 [1-34] | < 100 |
| COc1cccc(-c2ccc3c(=O)n(-c4ncccn4)ncc3c2)c1Cl [1-40] | < 100 |
| Cc1ccc(-c2ccc3c(=O)n(-c4ccc(C(C)O)cc4)ncc3c2)c(C)c1 (stereo not drawn) [1-14, 6-(2,4-Dimethylphenyl)-2-(4-(1-hydroxyethyl)phenyl)phthalazin-1(2H)-one] | 100 to 1000 |
| COc1cccc(-c2ccc3c(=O)n(-c4ncc(F)cn4)ncc3c2)c1C [1-62] | < 100 |
| O=c1c2ccc(-c3cccc(N4CCC4)c3)cc2cnn1-c1ncc(F)cn1 [1-76] | < 100 |
| COc1cccc(-c2ccc3c(=O)n(-c4ccc(NC(=O)[C@@H](N)C(C)C)cn4)ncc3c2)c1C [1-98, (S)-2-Amino-N-(6-(6-(3-methoxy-2-methylphenyl)-1-oxophthalazin-2(1H)-yl)pyridin-3-yl)-3-methylbutanamide hydrochloride] | 100 to 1000 |
| COc1cccc(-c2ccc3c(=O)n(CCN4CCOCC4)ncc3c2)c1C [1-66] | 100 to 1000 |
| COc1cccc(-c2ccc3c(=O)n(-c4ncccc4F)ncc3c2)c1 [1-29] | 100 to 1000 |
| COc1cccc(-c2ccc3c(=O)n(-c4ncccn4)ncc3c2)c1C [1-42] | < 100 |
| COc1cccc(-c2ccc3c(=O)n(-c4ncc(NC(C)(C)CN(C)C)cn4)ncc3c2)c1C [1-104] | 100 to 1000 |
| COc1cccc(-c2ccc3c(=O)n(-c4ncc(NCC(C)(C)OC)cn4)ncc3c2)c1C [1-110, 6-(3-Methoxy-2-methylphenyl)-2-(5-((2-methoxy-2-methylpropyl)amino)pyrimidin-2-yl)phthalazin-1(2H)-one] | 100 to 1000 |
| COc1cccc(-c2ccc3c(=O)n(-c4ncc(N5CCC(O)C5)cn4)ncc3c2)c1C (stereo not drawn) [1-65] | < 100 |

The remaining lines, values ahead:

| IC50 [nM] | Compound |
| --- | --- |
| < 100 | COc1cccc(-c2ccc3c(=O)n(-c4ccc(C(=O)NCC(C)(C)O)cn4)ncc3c2)c1C [1-92] |
| < 100 | CN1CCCc2c(-c3ccc4c(=O)n(-c5ncccn5)ncc4c3)cccc21 [1-108] |
| < 100 | COc1cccc(-c2ccc3c(=O)n(-c4ncc(NC5CCC(O)CC5)cn4)ncc3c2)c1C (stereo not drawn) [1-74] |
| < 100 | COc1cccc(-c2ccc3c(=O)n(-c4ncccn4)ncc3c2)c1F [1-111] |
| < 100 | COc1cccc(-c2ccc3c(=O)n(-c4ncc(NC5CCC(O)C5)cn4)ncc3c2)c1C (stereo not drawn) [1-87] |
| < 100 | Cc1c(-c2ccc3c(=O)n(-c4ccccn4)ncc3c2)cccc1N1CCC1 [1-77] |
| < 100 | CN1CCc2c(-c3ccc4c(=O)n(-c5ncccn5)ncc4c3)cccc21 [1-44] |
| < 100 | COc1cccc(-c2ccc3c(=O)n(-c4ccccn4)ncc3c2)c1C [1-35] |
| < 100 | COc1cccc(-c2ccc3c(=O)n(-c4ncc(N5CCCC(O)C5)cn4)ncc3c2)c1C (stereo not drawn) [1-73] |
| < 100 | O=c1c2ccc(-c3cccc(N4CCC4)c3)cc2cnn1-c1ccccn1 [1-45] |
| < 100 | COc1cccc(-c2ccc3c(=O)n(-c4ccc(S(C)(=N)=O)cn4)ncc3c2)c1C (stereo not drawn) [1-91] |
| < 100 | COc1cccc(-c2ccc3c(=O)n(-c4ncc(NCC(C)(C)O)cn4)ncc3c2)c1C [1-88] |
| < 100 | COc1cccc(-c2ccc3c(=O)n(-c4ccccn4)ncc3c2)c1Cl [1-33] |
| < 100 | Cc1ccc(-c2ccc3c(=O)n(-c4ccccn4)ncc3c2)c(C)c1 [1-10] |
| < 100 | COc1cccc(-c2ccc3c(=O)n(-c4ncc(NCCn5cncn5)cn4)ncc3c2)c1C [1-106] |
| < 100 | Cc1c(OC2CC2)cccc1-c1ccc2c(=O)n(-c3ccccn3)ncc2c1 [1-36] |
| < 100 | O=c1c2ccc(-c3cc(N4CCC4)ccc3F)cc2cnn1-c1ccccn1 [1-52] |
| < 100 | CN1CCc2c(-c3ccc4c(=O)n(-c5ccccn5)ncc4c3)cccc21 [1-37] |
| < 100 | COc1cccc(-c2ccc3c(=O)n(-c4ccc(NC(=O)[C@@H](N)CO)cn4)ncc3c2)c1C [1-102] |
| < 100 | COc1cnc(-n2ncc3cc(-c4cccc5c4CCN5C)ccc3c2=O)nc1 [1-57] |
| < 100 | COc1cccc(-c2ccc3c(=O)n(-c4ccc(C(=O)N5CCC(O)C5)cn4)ncc3c2)c1C (stereo not drawn) [1-93] |
| < 100 | COc1cccc(-c2ccc3c(=O)n(-c4ncc(Cl)cn4)ncc3c2)c1C [1-90] |
| < 100 | COc1cccc(-c2ccc3c(=O)n(-c4ncc(NC(C)(C)CO)cn4)ncc3c2)c1C [1-100] |
| < 100 | COc1cccc(-c2ccc3c(=O)n(-c4ccc(C(=O)NC5CCC(O)C5)cn4)ncc3c2)c1C (stereo not drawn) [1-94] |
| < 100 | COc1cccc(-c2ccc3c(=O)n(-c4ncc(NC5CCN(C)C5)cn4)ncc3c2)c1C (stereo not drawn) [1-107] |

Source: patent US20240327375A1, “SUBSTITUTED HETEROBICYCLIC DERIVATIVES AS NEGATIVE ALLOSTERIC MODULATORS OF MGLU7 RECEPTOR” (priority 2021, published 2024)
